Values quoted from earlier work in patent US20060275243A1, “Cosmetic or therapeutic combination preparation with theanine” (ROVI GmbH & Co. Kosmetische Rohstoffe KG, priority 2005, published 2006).

Conditions: investigations referred to in the description

CCNC(=O)CC[C@H](N)C(=O)O [theanine]
effect on the cramp-triggering effect of caffeine: can inhibit the cramp-triggering effect of caffeine
